Source: US20070259916A1, “mGluR5 modulators II” (AstraZeneca AB, priority 2006, published 2007)

Assays:
[1] = Determination of brain to plasma ratio in rat; type: in vivo; conditions: brain and plasma, female Sprague Dawley rats, drug in brain over drug in plasma, read-out: Brain/Plasma Ratio of compound in Rat
Protocol: Brain to plasma ratios are estimated in female Sprague Dawley rats. The compound is dissolved in water or another appropriate vehicle. For determination of brain to plasma ratio the compound is administrated as a subcutaneous, or an intravenous bolus injection, or an intravenous infusion, or an oral administration. At a predetermined time point after the administration a blood sample is taken with cardiac puncture. The rat is terminated by cutting the heart open, and the brain is immediately retained. The blood samples are collected in heparinized tubes and centrifuged within 30 minutes, in order to separate the plasma from the blood cells. The plasma is transferred to 96-well plates and stored at −20° C. until analysis. The brains are divided in half, and each half is placed in a pre-tarred tube and stored at −20° C. until analysis. Prior to the analysis, the brain samples are thawed and 3 ml/g brain tissue of distilled water is added to the tubes. The brain samples are sonicated in an ice bath until the samples are homogenized. Both brain and plasma samples are precipitated with acetonitrile. After centrifugation, the supernatant is diluted with 0.2% formic acid. […] After reconstitution of the residuals the samples are ready for injection onto the HPLC column.

human mGluR5d = molecular target: T1, human mGluR5d (Homo sapiens, UniProt P41594); experiment: FLIPR assay, functional assessment of mGluR5 antagonism (intracellular calcium mobilization); type: cell-based; conditions: cells expressing human mGluR5d; read-out: FLIPR hmGluR5d
T1 construct: expressed in transfected cells
T1 sequence (P41594 21-942 isoform P41594-3 limits assumed): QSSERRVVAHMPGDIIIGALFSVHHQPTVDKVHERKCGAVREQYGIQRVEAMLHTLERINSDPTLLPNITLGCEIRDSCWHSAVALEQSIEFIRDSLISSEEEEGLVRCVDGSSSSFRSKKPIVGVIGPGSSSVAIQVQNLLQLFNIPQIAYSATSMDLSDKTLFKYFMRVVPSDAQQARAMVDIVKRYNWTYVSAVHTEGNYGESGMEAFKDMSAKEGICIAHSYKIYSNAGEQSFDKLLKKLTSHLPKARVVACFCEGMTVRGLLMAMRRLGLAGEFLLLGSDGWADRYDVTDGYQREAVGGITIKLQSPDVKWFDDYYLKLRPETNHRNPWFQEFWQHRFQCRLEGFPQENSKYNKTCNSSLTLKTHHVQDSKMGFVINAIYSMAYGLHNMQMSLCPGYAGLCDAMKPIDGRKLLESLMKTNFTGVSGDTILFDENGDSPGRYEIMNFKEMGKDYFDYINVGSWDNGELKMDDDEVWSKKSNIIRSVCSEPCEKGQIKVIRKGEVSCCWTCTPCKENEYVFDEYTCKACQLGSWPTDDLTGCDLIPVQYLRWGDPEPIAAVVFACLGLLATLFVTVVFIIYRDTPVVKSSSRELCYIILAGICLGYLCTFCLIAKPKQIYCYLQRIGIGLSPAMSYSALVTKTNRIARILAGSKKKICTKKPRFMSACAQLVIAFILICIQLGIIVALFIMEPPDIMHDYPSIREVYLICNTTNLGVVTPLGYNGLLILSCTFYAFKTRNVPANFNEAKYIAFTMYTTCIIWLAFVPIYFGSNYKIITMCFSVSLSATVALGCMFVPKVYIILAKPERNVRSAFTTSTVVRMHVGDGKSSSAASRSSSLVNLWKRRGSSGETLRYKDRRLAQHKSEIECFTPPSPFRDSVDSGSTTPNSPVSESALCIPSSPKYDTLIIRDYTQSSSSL
Text: Functional Assessment of mGluR5 Antagonism in Cell Lines Expressing mGluR5D
The properties of the compounds of the invention can be analyzed using standard assays for pharmacological activity. Examples of glutamate receptor assays are well known in the art as described in for example Aramori et al., Neuron 8:757 (1992), Tanabe et al., Neuron 8:169 (1992), Miller et al., J. Neuroscience 15: 6103 (1995), Balazs, et al., J. Neurochemistry 69:151 (1997). The methodology described in these publications is incorporated herein by reference. Conveniently, the compounds of the invention can be studied by means of an assay (FLIPR) that measures the mobilization of intracellular calcium, [Ca^2+] in cells expressing mGluR5 or another assay (IP3) that measures inositol phosphate turnover.
Cells expressing human mGluR5d as described in WO97/05252 are seeded at a density of 100,000 cells per well on collagen coated clear bottom 96-well plates with black sides and experiments are done 24 h following seeding. […] The fluorescence signal is sampled 50 times at 1 second intervals followed by 3 samples at 5 second intervals immediately after each of the two additions. Responses are measured as the difference between the peak height of the response to agonist, less the background fluorescence within the sample period. […]

| Kp [1] | IC50 (human mGluR5d) | SMILES |
| --- | --- | --- |
| 0.085 | 193 nM | Cn1c(-c2cccnc2)nnc1N1CCCC[C@H]1c1nnn(-c2cccc(Cl)c2)n1 [Example 20.2, 3-(5-{(S)-2-[2-(3-Chloro-phenyl)-2H-tetrazol-5-yl]-piperidin-1-yl}-4-methyl-4H-[1,2,4]triazol-3-yl)-pyridine] |
| 0.06 | 110 nM | COc1cc(-c2nnc(N3CCCCC3c3nnn(-c4cccc(C#N)c4)n3)n2C)ccn1 (stereo not shown) [Example 19.11, 3-(5-{1-[5-(2-Methoxy-pyridin-4-yl)-4-methyl-4H-[1,2,4]triazol-3-yl]-piperidin-2-yl}-tetrazol-2-yl)-benzonitrile] |
